# Assay results reported in ChEMBL document CHEMBL1149052, “Pentacyclic triterpenes derived from Maprounea africana are potent inhibitors of HIV-1 reverse transcriptase” (J Nat Prod, 1994).
# Experiments:
# [1] = molecular target: Human immunodeficiency virus type 1 reverse transcriptase (Human immunodeficiency virus 1, UniProt Q72547); experiment: Inhibition of HIV1 reverse transcriptase
# [2] = Inhibition of HIV2 reverse transcriptase; parameters: species or system Human immunodeficiency virus 2
SMILES,IC50 [1] [µM],IC50 [2] [µM]
CC1(C)CC[C@]2(C(=O)O)CC=C3[C@]4(C)CC[C@H]5C(C)(C)[C@@H](OC(=O)c6ccc(O)cc6)C[C@@H](O)[C@]5(C)[C@H]4CC[C@@]3(C)[C@@H]2C1,3.7,59
CC1(C)CC[C@]2(C(=O)O)CC=C3[C@]4(C)CC[C@H]5C(C)(C)[C@@H](O)[C@H](O)C[C@]5(C)[C@H]4CC[C@@]3(C)[C@@H]2C1,3.4,56.7
CC[C@H]1CN2CCc3cc(OC)c(OC)cc3[C@@H]2C[C@@H]1CC1=NCCc2cc(OC)c(OC)cc21,14,–
CC1(C)CC[C@]2(C(=O)O)CC=C3[C@]4(C)CC[C@H]5C(C)(C)[C@@H](OC(=O)c6ccc(O)cc6)[C@H](OC(=O)c6ccc(O)cc6)C[C@]5(C)[C@H]4CC[C@@]3(C)[C@@H]2C1,3.7,28.9
CC1(C)CC[C@]2(C(=O)O)CC=C3[C@]4(C)CC[C@H]5C(C)(C)[C@@H](O)C[C@@H](O)[C@]5(C)[C@H]4CC[C@@]3(C)[C@@H]2C1,4.9,53.1
CC(=O)O[C@H]1CC[C@]2(C)[C@H]3CC[C@]4(C)C(=CC[C@@]5(C(=O)O)CCC(C)(C)C[C@H]54)[C@]3(C)CC[C@H]2C1(C)C [ACETYL ALEURITOLIC ACID],136,> 200
CC1(C)CC[C@]2(C(=O)O)CC=C3[C@]4(C)CC[C@H]5C(C)(C)[C@@H](O)CC[C@]5(C)[C@H]4CC[C@@]3(C)[C@@H]2C1 [ALEURITOLIC ACID],24.9,78.7
COc1cc2c(ccc3c4cc(OC)c(OC)cc4c[n+](C)c23)cc1O [FAGARONINE],13,–
